Data as given in patent US20260207615A1, “FLUOROPYRIDOPYRIMIDINE AND FLUOROQUINAZOLINE DERIVATIES AND METHODS OF USE THEREOF” (Frontier Medicines Corporation, priority 2022, published 2026).

Biological target: T1, KRAS G12C and cRAF interaction (Homo sapiens, UniProt P01116, C118S/C51S/C80L/G12C)
T1 construct: truncated version comprising amino acids 1-169
Assay: Inhibition of KRAS G12C and cRAF binding (AlphaScreen)
Assay type: biochemical
Details: KRAS G12C (Cys-light, aa 1-169) preloaded with GMPPNP, cRaf RBD (aa 50-131), 2 hours incubation
In short: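 Biotin-AviTag KRAS G12C (Cys-light C51S/C80L/C118S, aa 1-169, GMPPNP-loaded; 0.5 nM final)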

T1 sequence (P01116 1-169 isoform P01116-2 G12C/C51S/C80L/C118S): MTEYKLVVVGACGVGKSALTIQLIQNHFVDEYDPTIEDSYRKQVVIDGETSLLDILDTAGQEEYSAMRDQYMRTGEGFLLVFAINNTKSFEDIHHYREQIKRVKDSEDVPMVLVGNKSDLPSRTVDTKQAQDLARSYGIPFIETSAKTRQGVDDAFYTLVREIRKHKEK

Structure (SMILES)	IC50 [nM]
C=CC(=O)N1C(C)CN(c2nc(OC[C@@]34CCCN3C[C@H](F)C4)nc3c(F)c(-c4cccc5cccc(Cl)c45)ncc23)CC12COC2 (stereo partly drawn) [Example 53, 1-(8-(7-(8-chloronaphthalen-1-yl)-8-fluoro-2-(((2R,7aS)-2-fluorotetrahydro-1H-pyrrolizin-7a(5H)-yl)methoxy)pyrido[4,3-d]pyrimidin-4-yl)-6-methyl-2-oxa-5,8-diazaspiro[3.5]nonan-5-yl) prop-2-en-1-one]	10 to 100
O=C(/C=C/CN1C[C@H]2C[C@@H]1CO2)N1CCN(c2nc(OC[C@@]34CCCN3C[C@H](F)C4)nc3c(F)c(-c4cccc5ccc(F)c(Cl)c45)ncc23)CC12COC2 [Example 9, (E)-4-((1R,4R)-2-oxa-5-azabicyclo[2.2.1]heptan-5-yl)-1-(8-(7-(8-chloro-7-fluoronaphthalen-1-yl)-8-fluoro-2-(((2R,7aS)-2-fluorotetrahydro-1H-pyrrolizin-7a(5H)-yl)methoxy)pyrido[4,3-d]pyrimidin-4-yl)-2-oxa-5,8-diazaspiro[3.5]nonan-5-yl) but-2-en-1-one]	< 10
C=CC(=O)N1CCN(c2nc(OC[C@@]34CCCN3C[C@H](F)C4)nc3c(F)c(-c4cc(O)cc(Cl)c4C4CC4)ncc23)CC12COC2 [Example 31, 1-(8-(7-(3-chloro-2-cyclopropyl-5-hydroxyphenyl)-8-fluoro-2-(((2R,7aS)-2-fluorotetrahydro-1H-pyrrolizin-7a(5H)-yl)methoxy)pyrido[4,3-d]pyrimidin-4-yl)-2-oxa-5,8-diazaspiro[3.5]nonan-5-yl) prop-2-en-1-one]	< 10
C=CC(=O)N1CCN(c2nc(OC[C@@]34CCCN3C[C@H](F)C4)nc3c(F)c(-c4cccc5cccc(Cl)c45)ncc23)C[C@]12CCOC2 [Example 89]	≥ 500
C#Cc1c(F)ccc2cccc(-c3ncc4c(N5CCN(C(=O)/C=C/CN6C[C@@H]7C[C@H]6CO7)C6(COC6)C5)nc(OC[C@@]56CCCN5C[C@H](F)C6)nc4c3F)c12 [Example 42, (E)-4-((1S,4S)-2-oxa-5-azabicyclo[2.2.1]heptan-5-yl)-1-(8-(7-(8-ethynyl-7-fluoronaphthalen-1-yl)-8-fluoro-2-(((2R,7aS)-2-fluorotetrahydro-1H-pyrrolizin-7a(5H)-yl)methoxy)pyrido[4,3-d]pyrimidin-4-yl)-2-oxa-5,8-diazaspiro[3.5]nonan-5-yl) but-2-en-1-one]	< 10
CO[C@@H]1CCN(C/C=C/C(=O)N2CCN(c3nc(OC[C@@]45CCCN4C[C@H](F)C5)nc4c(F)c(-c5cccc6ccc(F)c(Cl)c56)ncc34)CC23COC3)C1 [Example 8, (E)-1-(8-(7-(8-chloro-7-fluoronaphthalen-1-yl)-8-fluoro-2-(((2R,7aS)-2-fluorotetrahydro-1H-pyrrolizin-7a(5H)-yl)methoxy)pyrido[4,3-d]pyrimidin-4-yl)-2-oxa-5,8-diazaspiro[3.5]nonan-5-yl)-4-((R)-3-methoxypyrrolidin-1-yl) but-2-en-1-one]	10 to 100
O=C(/C=C/CN1C[C@@H]2C[C@H]1CO2)N1CCN(c2nc(OC[C@@]34CCCN3C[C@H](F)C4)nc3c(F)c(-c4cccc(Cl)c4C(F)(F)F)ncc23)CC12COC2 [Example 57, (E)-4-((1S,4S)-2-oxa-5-azabicyclo[2.2.1]heptan-5-yl)-1-(8-(7-(3-chloro-2-(trifluoromethyl)phenyl)-8-fluoro-2-(((2R,7aS)-2-fluorotetrahydro-1H-pyrrolizin-7a(5H)-yl)methoxy)pyrido[4,3-d]pyrimidin-4-yl)-2-oxa-5,8-diazaspiro[3.5]nonan-5-yl) but-2-en-1-one]	10 to 100
O=C(/C=C/CN1[C@@H]2CC[C@H]1COC2)N1CCN(c2nc(OCC34CCCN3CCC4)nc3c(F)c(-c4cccc5cccc(Cl)c45)ncc23)CC12COC2 [Example 36, (E)-4-((1R,5S)-3-oxa-8-azabicyclo[3.2.1]octan-8-yl)-1-(8-(7-(8-chloronaphthalen-1-yl)-8-fluoro-2-((tetrahydro-1H-pyrrolizin-7a(5H)-yl)methoxy)pyrido[4,3-d]pyrimidin-4-yl)-2-oxa-5,8-diazaspiro[3.5]nonan-5-yl) but-2-en-1-one]	< 10
